melting point | Structure (SMILES)
176 to 177 °C | CCCOc1ccc(F)c2c(=O)c(-c3ccc(OCC)c(F)c3)c[nH]c12 [Example 50, 3-(4-Ethoxy-3-fluorophenyl)-5-fluoro-8-propoxy-1H-quinolin-4-one]
201 to 202 °C | CCCOc1ccc(F)c2c(=O)c(-c3ccc(C(=O)OC)cc3)c[nH]c12 [Example 55, Methyl 4-(5-fluoro-4-oxo-8-propoxy-1,4-dihydroquinolin-3-yl)benzoate]
118 to 120 °C | CCCOc1ccc(F)c2c(=O)c(-c3ccc(OCC)cc3OC)c[nH]c12 [Example 19, 3-(4-Ethoxy-2-methoxyphenyl)-5-fluoro-8-propoxy-1H-quinolin-4-one]
143 to 144 °C | CCCOc1ccc(F)c2c(=O)c(-c3ccc(OC(F)(F)F)cc3)c(C(F)(F)F)[nH]c12 [Example 82, 5-Fluoro-8-propoxy-3-(4-trifluoromethoxyphenyl)-2-trifluoromethyl-1H-quinolin-4-one]
265 to 266 °C | CCCOc1ccc(F)c2c(=O)c(-c3ccncc3)c(C)[nH]c12 [Example 69, 5-Fluoro-2-methyl-8-propoxy-3-pyridin-4-yl-1H-quinolin-4-one]
180 to 181 °C | CCCOc1ccc(F)c2c(=O)c(-c3ccc(C(C)=O)cc3)c[nH]c12 [Example 54, 3-(4-Acetylphenyl)-5-fluoro-8-propoxy-1H-quinolin-4-one]
211 to 212 °C | CCCOc1ccc(F)c2c(=O)c(-c3ccc(OC)cc3)c(C)[nH]c12 [Example 67, 5-Fluoro-3-(4-methoxyphenyl)-2-methyl-8-propoxy-1H-quinolin-4-one]
193 to 194 °C | COc1ccc(-c2c[nH]c3c(OCC4CCC4)ccc(F)c3c2=O)cc1 [Example 41, 8-Cyclobutylmethoxy-5-fluoro-3-(4-methoxyphenyl)-1H-quinolin-4-one]
208 to 209 °C | CCCOc1ccc(F)c2c(=O)c(-c3ccc(OC)cc3O)c[nH]c12 [Example 98, 5-Fluoro-3-(2-hydroxy-4-methoxyphenyl)-8-propoxy-1H-quinolin-4-one]
134 to 136 °C | CCCOc1ccc(F)c2c(=O)c(-c3ccco3)c(C(F)(F)F)[nH]c12 [Example 78, 5-Fluoro-3-furan-2-yl-8-propoxy-2-trifluoromethyl-1H-quinolin-4-one]
229 to 231 °C | COc1ccc(-c2c[nH]c3c(OCCCNC(C)=O)ccc(F)c3c2=O)cc1 [Example 26, N-{3-[5-Fluoro-3-(4-methoxyphenyl)-4-oxo-1,4-dihydroquinolin-8-yloxy]propyl}acetamide]
216 to 218 °C | COc1ccc(-c2c[nH]c3c(OCC(C)O)ccc(F)c3c2=O)cc1 (stereo not drawn) [Example 102, 5-Fluoro-8-(2-hydroxypropoxy)-3-(4-methoxyphenyl)-1H-quinolin-4-one]
204 to 206 °C | CCCOc1ccc(F)c2c(=O)c(-c3ccc(OC)cc3OC(C)C)c[nH]c12 [Example 15, 5-Fluoro-3-(2-isopropoxy-4-methoxyphenyl)-8-propoxy-1H-quinolin-4-one]
149 to 150 °C | CCCOc1ccc(F)c2c(=O)c(-c3cccs3)c(C(F)(F)F)[nH]c12 [Example 85, 5-Fluoro-8-propoxy-3-thiophen-2-yl-2-trifluoromethyl-1H-quinolin-4-one]
234 to 236 °C | CCCOc1ccc(F)c2c(=O)c(-c3ccc(C(=O)N4CCOCC4)cc3)c[nH]c12 [Example 90, 5-Fluoro-3-[4-(morpholine-4-carbonyl)phenyl]-8-propoxy-1H-quinolin-4-one]
249 to 251 °C | COc1ccc(-c2c[nH]c3c(N4CCOCC4)ccc(F)c3c2=O)cc1 [Example 14, 5-Fluoro-3-(4-methoxyphenyl)-8-morpholin-4-yl-1H-quinolin-4-one]
120 to 121 °C | COc1ccc(-c2c[nH]c3c(OCCCNS(C)(=O)=O)ccc(F)c3c2=O)cc1 [Example 27, N-{3-[5-Fluoro-3-(4-methoxyphenyl)-4-oxo-1,4-dihydroquinolin-8-yloxy]propyl}methanesulfonamide]
236 to 237 °C | COc1ccc(-c2c[nH]c3c(C(=O)N4CCCC4)ccc(F)c3c2=O)cc1 [Example 23, 5-Fluoro-3-(4-methoxyphenyl)-8-(pyrrolidin-1-carbonyl)-1H-quinolin-4-one]
113 to 114 °C | CCCOc1ccc(F)c2c(=O)c(-c3ccco3)c(C(C)C)[nH]c12 [Example 84, 5-Fluoro-3-furan-2-yl-2-isopropyl-8-propoxy-1H-quinolin-4-one]
113 to 115 °C | CCCOc1ccc(F)c2c(=O)c(-c3ccc(OC(C)C)cc3OC)c[nH]c12 [Example 20, 5-Fluoro-3-(4-isopropoxy-2-methoxyphenyl)-8-propoxy-1H-quinolin-4-one]
195 to 197 °C | CCCOc1ccc(F)c2c(=O)c(-c3ccc(OC)cc3)c(C(C)C)[nH]c12 [Example 83, 5-Fluoro-2-isopropyl-3-(4-methoxyphenyl)-8-propoxy-1H-quinolin-4-one]
170 to 171 °C | CCCOc1ccc(F)c2c(=O)c(-c3ccc(OC)cc3)c(C(F)(F)F)[nH]c12 [Example 77, 5-Fluoro-3-(4-methoxyphenyl)-8-propoxy-2-trifluoromethyl-1H-quinolin-4-one]
194 to 196 °C | CCCOc1ccc(Cl)c2c(=O)c(-c3ccc(OC)cc3)c[nH]c12 [Example 103, 5-Chloro-3-(4-methoxyphenyl)-8-propoxy-1H-quinolin-4-one]

melting point | Structure (SMILES)
154 to 155 °C | CCOc1ccc(F)c2c(=O)c(-c3ccc(OC)cc3OC)c[nH]c12 [Example 12, 3-(2,4-Dimethoxyphenyl)-8-ethoxy-5-fluoro-1H-quinolin-4-one]
193 to 195 °C | CCCOc1ccc(F)c2c(=O)c(-c3ccccc3OC)c[nH]c12 [Example 7, 5-Fluoro-3-(2-methoxyphenyl)-8-propoxy-1H-quinolin-4-one]
144 to 145 °C | COc1ccc(-c2c[nH]c3c(N(C)CC(C)C)ccc(F)c3c2=O)cc1 [Example 28, 5-Fluoro-8-(N-isobutyl-N-methylamino)-3-(4-methoxyphenyl)-1H-quinolin-4-one]
193 to 194 °C | COc1ccc(-c2c[nH]c3c(OC(C)C)ccc(F)c3c2=O)cc1 [Example 9, 5-Fluoro-8-isopropoxy-3-(4-methoxyphenyl)-1H-quinolin-4-one]
154 to 155 °C | CCCOc1ccc(F)c2c(=O)c(-c3ccc(F)cc3)c(C(F)(F)F)[nH]c12 [Example 81, 5-Fluoro-3-(4-fluorophenyl)-8-propoxy-2-trifluoromethyl-1H-quinolin-4-one]
235 to 237 °C | CCCOc1ccc(F)c2c(=O)c(-c3ccc(C(=O)N(C)C)cc3)c[nH]c12 [Example 57, 4-(5-Fluoro-4-oxo-8-propoxy-1,4-dihydroquinolin-3-yl)-N,N-dimethylbenzamide]
236 to 237 °C | CCOc1ccc(F)c2c(=O)c(-c3ccc(Cl)cc3Cl)c[nH]c12 [Example 13, 3-(2,4-Dichlorophenyl)-8-ethoxy-5-fluoro-1H-quinolin-4-one]
276 to 277 °C | COc1ccc(-c2c[nH]c3c(-c4cc5ccccc5s4)ccc(F)c3c2=O)cc1 [Example 88, 8-Benzo[b]thiophen-2-yl-5-fluoro-3-(4-methoxyphenyl)-1H-quinolin-4-one]
196 to 197 °C | CCCOc1ccc(F)c2c(=O)c(-c3ccc(F)cc3)c(C)[nH]c12 [Example 74, 5-Fluoro-3-(4-fluorophenyl)-2-methyl-8-propoxy-1H-quinolin-4-one]
190 to 192 °C | CCCOc1ccc(F)c2c(=O)c(-c3cccnc3)c(C)[nH]c12 [Example 68, 5-Fluoro-2-methyl-8-propoxy-3-pyridin-3-yl-1H-quinolin-4-one]
251 to 253 °C | CCCOc1ccc(F)c2c(=O)c(-c3ccc(O)cc3OC)c[nH]c12 [Example 97, 5-Fluoro-3-(4-hydroxy-2-methoxyphenyl)-8-propoxy-1H-quinolin-4-one]
267 to 269 °C | COc1ccc(-c2c[nH]c3c(N(C)C(C)C)ccc(F)c3c2=O)cc1 [Example 29, 5-Fluoro-8-(N-isopropyl-N-methylamino)-3-(4-methoxyphenyl)-1H-quinolin-4-one]
228 to 230 °C | CCCOc1ccc(F)c2c(=O)c(-c3ccc(Oc4ccccc4)cc3)c[nH]c12 [Example 52, 5-Fluoro-3-(4-phenoxyphenyl)-8-propoxy-1H-quinolin-4-one]
303 to 305 °C (dec.) | O=c1c(-c2ccc(O)cc2)c[nH]c2c(O)ccc(F)c12 [Example 96, 5-Fluoro-8-hydroxy-3-(4-hydroxyphenyl)-1H-quinolin-4-one]
156 to 157 °C | CCCOc1ccc(F)c2c(=O)c(-c3cc(OC)ccc3OC)c[nH]c12 [Example 65, 3-(2,5-Dimethoxyphenyl)-5-fluoro-8-propoxy-1H-quinolin-4-one]
116 to 118 °C | CCCOc1ccc(F)c2c(=O)c(-c3ccc(OC)cc3OC)c[nH]c12 [Example 8, 3-(2,4-Dimethoxyphenyl)-5-fluoro-8-propoxy-1H-quinolin-4-one]
259 to 261 °C | CCCOc1ccc(F)c2c(=O)c(-c3ccncc3)c[nH]c12 [Example 51, 5-Fluoro-8-propoxy-3-pyridin-4-yl-1H-quinolin-4-one]
234 to 236 °C | CCCOc1ccc(F)c2c(=O)c(-c3cccnc3)c[nH]c12 [Example 49, 5-Fluoro-8-propoxy-3-pyridin-3-yl-1H-quinolin-4-one]
236 to 237 °C | CCCOc1ccc(F)c2c(=O)c(-c3ccc(C(=O)N4CCCC4)cc3)c[nH]c12 [Example 56, 5-Fluoro-8-propoxy-3-[4-(pyrrolidine-1-carbonyl)phenyl]-1H-quinolin-4-one]
134 to 135 °C | COc1ccc(-c2c[nH]c3c(Br)ccc(F)c3c2=O)cc1 [Example 22, 8-Bromo-5-fluoro-3-(4-methoxyphenyl)-1H-quinolin-4-one]
203 to 205 °C | CCCOc1ccc(F)c2c(=O)c(-c3ccc(OCC)cc3)c[nH]c12 [Example 33, 3-(4-Ethoxyphenyl)-5-fluoro-8-propoxy-1H-quinolin-4-one]
271 to 272 °C | CCCOc1ccc(F)c2c(=O)c(-c3ccc(O)cc3)c[nH]c12 [Example 95, 5-Fluoro-3-(4-hydroxyphenyl)-8-propoxy-1H-quinolin-4-one]

— patent US20160304461A1, “QUINOLONE COMPOUND AND PHARMACEUTICAL COMPOSITION” (OTSUKA PHARMACEUTICAL CO., LTD., priority 2007, published 2016)
